According to US12338256B2, “Aza-tetracyclic oxazepine compounds and uses thereof” (Genentech, Inc., priority 2022, dated 2025):

What was measured:
Type in all cases: cell-based
[1] = system: PC-9 (KRAS wild type human lung adenocarcinoma cell line); assay: KRAS 3D-Cell Proliferation Assay, PC-9 (Example 503); conditions: 168 h, PC-9 3D culture, 7 days, CellTiter-Glo 3D, read-out: Prolif PC9 3D ATP IC50
Outline: (§1)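 KRAS G12D homozygous pancreatic lines and KRAS wild-type lung lines grown as 3D cultures in ultra-low-attachment wells in RPMI-1640/10% FBS, dosed after overnight with compound dilution series (0.3% DMSO final) for 7 days at 37 °C. ATP read by CellTiter-Glo 3D luminescence; IC50 from 4-parameter Hill fit, normalized to DMSO and 1 μM staurosporine.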

[2] = system: AsPC-1 (homozygous mutant KRAS G12D human pancreatic cell line); assay: KRAS 3D-Cell Proliferation Assay, AsPC-1 (Example 503); conditions: Homo sapiens, ASPC1, 168 h, AsPC-1 3D culture, 7 days, CellTiter-Glo 3D; read-out: Prolif AsPC-1 3D ATP IC50
Outline: as §1

[3] = system: HPAC (homozygous mutant KRAS G12D human pancreatic cell line); assay: KRAS 3D-Cell Proliferation Assay, HPAC (Example 503); conditions: Homo sapiens, HPAC, 168 h, HPAC 3D culture, 7 days, CellTiter-Glo 3D; read-out: Prolif HPAC 3D ATP IC50
Outline: as §1

[4] = system: H1975 (KRAS wild type human lung adenocarcinoma cell line); assay: KRAS 3D-Cell Proliferation Assay, H1975 (Example 503); conditions: Homo sapiens, NCI-H1975, 168 h, H1975 3D culture, 7 days, CellTiter-Glo 3D; read-out: Prolif H1975 3D ATP IC50
Outline: as §1

`Cc1c(F)c(N)cc(-c2nc3c4c(nc(OC[C@]56CCN5CC(F)(F)C6)nc4c2F)N2C[C@H]4CC[C@H](N4)[C@H]2[C@H](C)O3)c1C(F)(F)F` [Compound 24, 5-((5S,5aS,6S,9R)-12-(((R)-3,3-difluoro-1-azabicyclo[3.2.0]heptan-5-yl)methoxy)-1-fluoro-5-methyl-5a,6,7,8,9,10-hexahydro-5H-4-oxa-3,10a,11,13,14-pentaaza-6,9-methanonaphtho[1,8-ab]heptalen-2-yl)-2-fluoro-3-methyl-4-(trifluoromethyl)aniline] gave an IC50 [1] of 7870 nM, an IC50 [2] of 4.29 nM and an IC50 [3] of 1.89 nM. For the same molecule, the IC50 [4] was 6710 nM.

`C#Cc1cccc2cc(O)cc(-c3nc4c5c(nc(OC[C@@]67CCCN6C[C@H](F)C7)nc5c3F)N3C[C@H]5CC[C@H](CN5CCCF)[C@H]3CO4)c12` [Compound 50, 5-Ethynyl-4-((5aS,6R,9R)-1-fluoro-14-(3-fluoropropyl)-12-(((2R,7aS)-2-fluorotetrahydro-1H-pyrrolizin-7a(5H)-yl)methoxy)-5a,6,7,8,9,10-hexahydro-5H-4-oxa-3,10a,11,13,14-pentaaza-6,9-ethanonaphtho[1,8-ab]heptalen-2-yl)naphthalen-2-ol] was tested, and the IC50 [1] was 4910 nM, the IC50 [2] was 13 nM and the IC50 [3] was 25.8 nM. It also gave an IC50 [4] of 455 nM.

Molecule `C[C@@H]1Oc2nc(-c3nc(N)c(F)cc3C(F)(F)F)c(F)c3nc(OC[C@]45CCN4CC(F)(F)C5)nc(c23)N2C[C@H]3CC[C@H](N3)[C@@H]12` [Compound 87, 6-((5S,5aS,6S,9R)-12-(((R)-3,3-Difluoro-1-azabicyclo[3.2.0]heptan-5-yl)methoxy)-1-fluoro-5-methyl-5a,6,7,8,9,10-hexahydro-5H-4-oxa-3,10a,11,13,14-pentaaza-6,9-methanonaphtho[1,8-ab]heptalen-2-yl)-3-fluoro-5-(trifluoromethyl)pyridin-2-amine] has an IC50 [1] of no less than 20000 nM, an IC50 [2] of 4030 nM and an IC50 [3] of 1400 nM. For the same molecule, the IC50 [4] was 20000 nM.

Work on `C#Cc1cccc2cncc(-c3nc4c5c(nc(OC[C@@]67CCCN6CC6(CC6(F)F)C7)nc5c3F)N3C[C@H]5CC[C@H](N5)[C@H]3[C@H](C)O4)c12` (stereo partly drawn) [Compound 40, (5S,5aS,6S,9R)-12-(((7a′S)-2,2-difluorodihydro-1′H,3′H-spiro[cyclopropane-1,2′-pyrrolizin]-7a′(5′H)-yl)methoxy)-2-(5-ethynylisoquinolin-4-yl)-1-fluoro-5-methyl-5a,6,7,8,9,10-hexahydro-5H-4-oxa-3,10a,11,13,14-pentaaza-6,9-methanonaphtho[1,8-ab]heptalene] yielded an IC50 [1] of 15700 nM, an IC50 [2] of 27.7 nM and an IC50 [3] of 36 nM. The IC50 [4] was 20000 nM.

In the case of `C#Cc1c(F)ccc2cc(O)cc(-c3nc4c5c(nc(OC[C@@]67CCCN6C[C@H](F)C7)nc5c3F)N3C[C@H]5CC[C@H](N5)[C@H]3[C@H](C)O4)c12` [Compound 7, 5-Ethynyl-6-fluoro-4-((5S,5aS,6S,9R)-1-fluoro-12-(((2R,7aS)-2-fluorotetrahydro-1H-pyrrolizin-7a(5H)-yl)methoxy)-5-methyl-5a,6,7,8,9,10-hexahydro-5H-4-oxa-3,10a,11,13,14-pentaaza-6,9-methanonaphtho[1,8-ab]heptalen-2-yl)naphthalen-2-ol], the IC50 [1] is reported as 10200 nM, the IC50 [2] is reported as 1.92 nM and the IC50 [3] is reported as 1.36 nM. For the same molecule, the IC50 [4] was 130 nM.

`C#Cc1cccc2cncc(-c3nc4c5c(nc(OC[C@@]67CCCN6C[C@H](F)C7)nc5c3F)N3C[C@H]5CC[C@H](N5)[C@H]3[C@H](C)O4)c12` [Compound 39, (5S,5aS,6S,9R)-2-(5-Ethynylisoquinolin-4-yl)-1-fluoro-12-(((2R,7aS)-2-fluorotetrahydro-1H-pyrrolizin-7a(5H)-yl)methoxy)-5-methyl-5a,6,7,8,9,10-hexahydro-5H-4-oxa-3,10a,11,13,14-pentaaza-6,9-methanonaphtho[1,8-ab]heptalene] gave an IC50 [1] of no less than 20000 nM, an IC50 [2] of 55.8 nM and an IC50 [3] of 35.8 nM. It also gave an IC50 [4] of 3970 nM.

Molecule `C[C@@H]1Oc2nc(-c3nc(N)c(F)cc3C(F)(F)F)c(F)c3nc(OC[C@@]45CCCN4CC4(CC4(F)F)C5)nc(c23)N2C[C@H]3CC[C@H](N3)[C@@H]12` (stereo partly drawn) [Compound 86, 6-((5S,5aS,6S,9R)-12-(((7a′S)-2,2-difluorodihydro-1′H,3′H-spiro[cyclopropane-1,2′-pyrrolizin]-7a′(5′H)-yl)methoxy)-1-fluoro-5-methyl-5a,6,7,8,9,10-hexahydro-5H-4-oxa-3,10a,11,13,14-pentaaza[6,9]methanonaphtho[1,8-ab]heptalen-2-yl)-3-fluoro-5-(trifluoromethyl)pyridin-2-amine] has an IC50 [1] of 8750 nM, an IC50 [2] of 144 nM and an IC50 [3] of 126 nM. It also gave an IC50 [4] of 5430 nM.

`Cc1c(F)c(N)cc(-c2nc3c4c(nc(OC[C@H]5CC(F)(F)CN5C)nc4c2F)N2C[C@H]4CC[C@H](N4)[C@H]2[C@H](C)O3)c1C(F)(F)F` [Compound 66, 5-((5S,5aS,6S,9R)-12-(((R)-4,4-difluoro-1-methylpyrrolidin-2-yl)methoxy)-1-fluoro-5-methyl-5a,6,7,8,9,10-hexahydro-5H-4-oxa-3,10a,11,13,14-pentaaza-6,9-methanonaphtho[1,8-ab]heptalen-2-yl)-2-fluoro-3-methyl-4-(trifluoromethyl)aniline] gave an IC50 [1] of 4780 nM, an IC50 [2] of 41.4 nM and an IC50 [3] of 27.6 nM. For the same molecule, the IC50 [4] was 7150 nM.

Work on `Cc1cc(N)nc(-c2nc3c4c(nc(OC[C@@]56CCCN5C[C@H](F)C6)nc4c2F)N2C[C@H]4CC[C@H](N4)[C@H]2[C@H](C)O3)c1C(F)(F)F` [Compound 43, 6-((5S,5aS,6S,9R)-1-Fluoro-12-(((2R,7aS)-2-fluorotetrahydro-1H-pyrrolizin-7a(5H)-yl)methoxy)-5-methyl-5a,6,7,8,9,10-hexahydro-5H-4-oxa-3,10a,11,13,14-pentaaza-6,9-methanonaphtho[1,8-ab]heptalen-2-yl)-4-methyl-5-(trifluoromethyl)pyridin-2-amine] yielded an IC50 [1] of no less than 20000 nM, an IC50 [2] of 43.4 nM and an IC50 [3] of 16.8 nM. It also gave an IC50 [4] of 4290 nM.

Molecule `Cc1cc(N)c(F)c(-c2nc3c4c(nc(OC[C@@]56CCCN5C[C@H](F)C6)nc4c2F)N2C[C@H]4CC[C@H](N4)[C@H]2[C@H](C)O3)c1C(F)(F)F` [Compound 34, 2-Fluoro-3-((5S,5aS,6S,9R)-1-fluoro-12-(((2R,7aS)-2-fluorotetrahydro-1H-pyrrolizin-7a(5H)-yl)methoxy)-5-methyl-5a,6,7,8,9,10-hexahydro-5H-4-oxa-3,10a,11,13,14-pentaaza-6,9-methanonaphtho[1,8-ab]heptalen-2-yl)-5-methyl-4-(trifluoromethyl)aniline] has an IC50 [1] of 6950 nM, an IC50 [2] of 0.692 nM and an IC50 [3] of 0.54 nM. The IC50 [4] was 340 nM.

`C[C@@H]1Oc2nc(-c3cccc4cccc(Cl)c34)c(F)c3nc(OC[C@@]45CCCN4CC4(CC4(F)F)C5)nc(c23)N2C[C@H]3CC[C@H](N3)[C@@H]12` (stereo partly drawn) [Compound 27, (5S,5aS,6S,9R)-2-(8-chloronaphthalen-1-yl)-12-(((7a′S)-2,2-difluorodihydro-1′H,3′H-spiro[cyclopropane-1,2′-pyrrolizin]-7a′(5′H)-yl)methoxy)-1-fluoro-5-methyl-5a,6,7,8,9,10-hexahydro-5H-4-oxa-3,10a,11,13,14-pentaaza-6,9-methanonaphtho[1,8-ab]heptalene] showed an IC50 [1] of 2780 nM, an IC50 [2] of 32.1 nM and an IC50 [3] of 68.1 nM. The IC50 [4] was 2390 nM.

Work on `C#Cc1cccc2cc(O)cc(-c3nc4c5c(nc(OCC67CCN6CC(F)(F)C7)nc5c3F)N3C[C@H]5CC[C@H](N5)[C@H]3[C@H](C)O4)c12` (single isomer, unassigned) [Compound 20] yielded an IC50 [1] of 8680 nM, an IC50 [2] of 28.7 nM and an IC50 [3] of 7.78 nM. The IC50 [4] was 2220 nM.

`Cc1cc(-c2nc3c4c(nc(OC[C@@]56CCCN5C[C@H](F)C6)nc4c2F)N2C[C@H]4CC[C@H](N4)[C@H]2[C@H](C)O3)c(F)c(N)c1F` [Compound 18, 2,6-difluoro-3-((5S,5aS,6S,9R)-1-fluoro-12-(((2R,7aS)-2-fluorotetrahydro-1H-pyrrolizin-7a(5H)-yl)methoxy)-5-methyl-5a,6,7,8,9,10-hexahydro-5H-4-oxa-3,10a,11,13,14-pentaaza-6,9-methanonaphtho[1,8-ab]heptalen-2-yl)-5-methylaniline] showed an IC50 [1] of 7910 nM, an IC50 [2] of 5590 nM and an IC50 [3] of 5220 nM. The IC50 [4] was 20000 nM.

`Cc1c(F)c(N)cc(-c2nc3c4c(nc(OCC56CCN5C[C@H](F)C6)nc4c2F)N2C[C@H]4CC[C@H](N4)[C@H]2[C@H](C)O3)c1C(F)(F)F` (stereo partly drawn) [Compound 29, 2-fluoro-5-((5S,5aS,6S,9R)-1-fluoro-12-(((3R)-3-fluoro-1-azabicyclo[3.2.0]heptan-5-yl)methoxy)-5-methyl-5a,6,7,8,9,10-hexahydro-5H-4-oxa-3,10a,11,13,14-pentaaza-6,9-methanonaphtho[1,8-ab]heptalen-2-yl)-3-methyl-4-(trifluoromethyl)aniline] showed an IC50 [1] of 8190 nM, an IC50 [2] of 4.98 nM and an IC50 [3] of 7.76 nM. For the same molecule, the IC50 [4] was 6110 nM.

`Cc1c(F)c(N)cc(-c2nc3c4c(nc(OC[C@@]56CCCN5C[C@H](F)C6)nc4c2F)N2C[C@H]4CC[C@H](N4)[C@H]2[C@H](C)O3)c1C(F)(F)F` [Compound 6, 2-Fluoro-5-((5S,5aS,6S,9R)-1-fluoro-12-(((2R,7aS)-2-fluorotetrahydro-1H-pyrrolizin-7a(5H)-yl)methoxy)-5-methyl-5a,6,7,8,9,10-hexahydro-5H-4-oxa-3,10a,11,13,14-pentaaza-6,9-methanonaphtho[1,8-ab]heptalen-2-yl)-3-methyl-4-(trifluoromethyl)aniline] gave an IC50 [1] of 4210 nM, an IC50 [2] of 0.561 nM and an IC50 [3] of 0.247 nM. The IC50 [4] was 692 nM.
